Results from patent publication US20230220331A1, “TEMPORARY TREATMENT MEDIUM, TREATMENT KIT, EMBRYOGENESIS ARREST INHIBITOR, EMBRYOGENESIS ARREST INHIBITORY METHOD, DEVELOPMENTAL ENGINEERING PRODUCT PREPARATION METHOD, TRANSPLANTATION METHOD, THERAPEUTIC METHOD, AND DEVELOPMENTAL ENGINEERING PRODUCT” (priority 2020, published 2023).

Experiments:
[1] = system: NOD-scid Bbox1, IL2RG double knock-out mice; experiment: Passage efficiency of mice prepared by using Y-27632 (Treatment Example 20); type: in vivo, mouse
Excerpt: The double knock-out mice of IL2RG gene and the Bbox1 gene by using the NOD-scid mice in the above-mentioned treatment example 14 were mated with each other, and it was examined whether or not the newborn mouse was affected by Y-27632.

[2] = system: two-cell frozen embryos of heterologous inbred SPR2 mouse; experiment: Individual production from frozen eggs of SPR2 (Treatment Example 3); type: cell-based, Mus spretus; conditions: SPR2 frozen 2-cell embryos thawed, 1 hour in Y-27632 medium
Protocol: 1. Up to 3 hours before TAKE, Y-27632-added mWM medium (Y-27632 final concentration 10 μM, an example of the “temporary treatment medium” of this example), Y-27632-free mWM medium (an example of “normal medium” of this example) were dropped into 35 mm Petri dishes by 5 drops, respectively, to prepare drops covered with paraffin oil. 2. Two-cell stage embryos were collected from the drops or thawed, placed in Y-27632-added mWM medium, and cultured for about 30 minutes to 1 hour (temporary treatment). According to a typical method, in the afternoon when female mice and rats were mated with males with vasoligation and confirmed to be plugged, about 10 each were transplanted into the left and right oviducts or uterus of plug-confirmed mature female mice and rats. In this production example, two-cell frozen embryos of SPR2 were thawed, cultured in a temporary treatment medium containing Y-27632 for 1 hour, and transplanted into the uterus of a pseudopregnant female mouse. […] As a result, frozen embryo-derived individuals (16 transplanted embryos, 6 newborns) were obtained.

[3] = system: pig fertilized embryos that had undergone in vitro maturation and in vitro fertilization with frozen semen; experiment: Development of electroporated pig IVM/IVF embryos (Treatment Example 5); type: cell-based
Protocol: 1. On the day before TAKE, 5 drops of Y-27632-added PZM-5 medium (Y-27632 final concentration 10 μM, an example of the “temporary treatment medium” of this example) was dropped on a 35 mm Petri dish to prepare a drop coated with paraffin oil. In the drop of this example, 20 μL of medium was added dropwise, 1 mL of oil was added, then 20 μL of medium was added again, and the mixture was completely covered with oil. This drop produced twice as many as the TAKE.
2. IVF was performed based on a method common to those skilled in the art.
3. On the day after fertilization, IVF embryos were placed in Y-27632-added PZM-5 medium and cultured for about 30 minutes to 1 hour (temporary treatment).
4. After that, TAKE was performed.
5. The embryos were returned to Y-27632-free PZM-5 medium (an example of the “normal medium” of this example) and cultured under the conditions of 39° C., 5% CO2, and 5% O2.
6. If necessary, sampling, or the like, was performed at the development stage. If the culture is to be continued until the blastocyst stage, the drops containing Y-27632-free PZM-5 medium and PBM medium was made in the same way as the step of “1.” at four days after insemination.
7. […]
In addition, the effect of the temporary treatment medium of this example was measured on pig fertilized embryos that had undergone in vitro maturation and in vitro fertilization with frozen semen.

[4] = system: Pronuclear stage embryo of C57BL/6J; experiment: Flox mouse production by the 2STEP method, Mecp2 / Drb1 (Treatment Example 2); type: cell-based
Protocol: 1. Up to 3 hours before TAKE, Y-27632-added mWM medium (Y-27632 final concentration 10 μM, an example of the “temporary treatment medium” of this example), Y-27632-free mWM medium (an example of “normal medium” of this example), 5 drops of each medium were dropped on 35 mm Petri dish, and then covered with paraffin oil. For the drops, twice the number of the drops plates to be performed TAKE were prepared.
2. Pronuclear stage embryos were collected, placed in Y-27632-added mWM medium, and cultured for about 30 minutes to 1 hour (temporary treatment).
3. After that, the first TAKE was performed.
3a. In the case of frozen eggs, after the first TAKE, they were placed in a Y-27632-added mWM medium and cultured for about 30 minutes to 1 hour (temporary treatment).
3b. In the case of unfrozen eggs, after the first TAKE, they were placed in a Y-27632-added mWM medium and cultured under 37° C. and 5% CO2 (5% O2) conditions until the next day (temporary treatment).
4. After the temporary treatment, the embryos were placed in Y-27632-free mWM medium and cultured at 37° C. and 5% CO2 (5% O2) conditions until the next day.
5. Both were confirmed at the next day, and the embryos at the 2-cell stage were subjected to the second TAKE.
6. After the second TAKE, the embryos were placed in Y-27632-added mWM medium and cultured for about 30 minutes to 1 hour (temporary treatment).
7. Then, they were transferred to Y-27632-free mWM medium. If necessary, culture was continued or embryo transfer was performed.
Therefore, in this preparation example, the temporary treatment medium containing Y-27632 was temporarily treated before and after the electroporation (EP) of the 2STEP method. Pronuclear stage embryo of C57BL/6J (CLEA Japan, Inc.) were used as an in-vitro-culture and female MCH (CLEA Japan, Inc.) were used as recipient.
The present inventors conducted an experiment to obtain Flox mice by the 2STEP method targeting the Mecp2 gene.
In Table 2, “m” indicates treatment with the normal medium, and “Y” indicates temporary treatment with the temporary treatment medium. […] That is, “m->m” uses the normal medium in the both step, “m->Y” was temporarily treated with the temporary treatment medium only in the first electroporation step, and “Y->Y” was temporarily treated with the temporary treatment medium in both steps.
In each column, the proportions that the loxP sequence is inserted only on the left side by the first electroporation step (Left loxP), the loxP sequence is inserted only on the right side by the second electroporation step (Right loxP), and both loxP sequences inserted by both steps (2loxP) were respectively shown.

[5] = NOG-Bbox1, generation F1, 3 pregnancies
[6] = NOG-Bbox1, generation F2, 8 pregnancies
[7] = 16 blastocysts transferred to uterus (3.5 days)
[8] = group Y → Y, 2STEP, Mecp2-Flox, blastocysts, listed as Y
[9] = group m → Y, 2STEP, target Mecp2-Flox

- ave. litter size ([1]; NOG-Bbox1, generation F1): (7.7/preg.)
- Total pups [1, 5]: 23
- female pups [1, 5]: 13
- male pups [1, 5]: 10
- ave. litter size ([1]; NOG-Bbox1, generation F2): (6.8/preg.)
- Total pups [1, 6]: 54
- female pups [1, 6]: 25
- male pups [1, 6]: 29
SMILES: C[C@@H](N)[C@H]1CC[C@H](C(=O)Nc2ccncc2)CC1 [Y-27632, trans-4-[(1R)-1-Aminoethyl]-N-4-pyrid inylcyclohexanecarboxamide]
- effect on mouse passage and phenotype ([1]; offspring of mice produced with Y-27632 treated embryos): did not affect mouse passage and phenotype
- NUMBER OF BIRTHS FEMALE [2, 7]: 4
- NUMBER OF BIRTHS MALE [2, 7]: 2
- NUMBER OF BIRTHS TOTAL (newborns) ([2]; 16 embryos transferred to uterus (3.5 days)): 6
- 2-cell stage embryos developed into late blastocysts (proportion) [3]: 35 out of 123
- Flox neonates obtained (%) ([4]; 2STEP, Mecp2, neonates, Y-27632 added): 4%
- Left loxP (proportion inserted) ([4]; group Y → Y (temporary treatment in both steps), 2STEP, Mecp2-Flox): 1/15
- Left loxP (%) ([4]; group Y → Y, 2STEP, Mecp2-Flox): (6.7%)
- Right loxP (%) ([4]; group Y → Y, 2STEP, Mecp2-Flox): (13.3%)
- Right loxP (proportion inserted) ([4]; group Y → Y, 2STEP, Mecp2-Flox): 2/15
- 2loxP (%), Flox blastocysts ([4]; group Y → Y, 2STEP, Mecp2-Flox, blastocysts): 7%
- 2loxP (%), Flox blastocysts [4, 8]: (6.7%)
- 2loxP (proportion, Flox blastocysts) [4, 8]: 1/15
- 2loxP (%) [4, 9]: (0%)
- 2loxP (proportion, both loxP inserted) [4, 9]: 0/17
- Left loxP (%) [4, 9]: (5.9%)
- Left loxP (proportion inserted) [4, 9]: 1/17
- Right loxP (%) [4, 9]: (5.9%)
- Right loxP (proportion inserted) [4, 9]: 1/17
- inbred strains of Flox mice obtained by the 2STEP method ([4]; two types of genes (Mecp2, Drb1)): obtained only from the experimental groups to which Y-27632 were added
